Measurements from PubChem BioAssay (NCI).
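Dose response: 5 concentrations. Exposure: 48 h. Format: 96-well plates. Endpoint: linear interpolation; highest concentration if not reached. GI50 is the concentration that inhibits growth by half. TGI marks complete inhibition of growth.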

What was measured:
Test in all cases: growth of human tumour cells (NCI), 48 h
786-0 renal = system: 786-0 renal
A498 renal = system: A498 renal
A549 NSCLC = system: A549 NSCLC
ACHN renal = system: ACHN renal
BT-549 breast = system: BT-549 breast
CAKI-1 renal = system: CAKI-1 renal
CCRF-CEM leukemia = system: CCRF-CEM leukemia
COLO 205 colon = system: COLO 205 colon
DU-145 prostate = system: DU-145 prostate
EKVX NSCLC = system: EKVX NSCLC
HCC-2998 colon = system: HCC-2998 colon
HCT-116 colon = system: HCT-116 colon
HCT-15 colon = system: HCT-15 colon
HL-60(TB) leukemia = system: HL-60(TB) leukemia
HOP-62 NSCLC = system: HOP-62 NSCLC
HOP-92 NSCLC = system: HOP-92 NSCLC
HS 578T breast = system: HS 578T breast
HT29 colon = system: HT29 colon
IGROV1 ovarian = system: IGROV1 ovarian
K-562 leukemia = system: K-562 leukemia
KM12 colon = system: KM12 colon
LOX IMVI melanoma = system: LOX IMVI melanoma
M14 melanoma = system: M14 melanoma
MALME-3M melanoma = system: MALME-3M melanoma
MCF7 breast = system: MCF7 breast
MDA-MB-231 breast = system: MDA-MB-231 breast
MDA-MB-435 = system: MDA-MB-435
MOLT-4 leukemia = system: MOLT-4 leukemia
NCI-H226 lung = system: NCI-H226 lung
NCI-H23 lung = system: NCI-H23 lung
NCI-H460 lung = system: NCI-H460 lung
NCI-H522 lung = system: NCI-H522 lung
NCI/ADR-RES ovarian = system: NCI/ADR-RES ovarian
OVCAR-3 ovarian = system: OVCAR-3 ovarian
OVCAR-4 ovarian = system: OVCAR-4 ovarian
OVCAR-5 ovarian = system: OVCAR-5 ovarian
OVCAR-8 ovarian = system: OVCAR-8 ovarian
PC-3 prostate = system: PC-3 prostate
RPMI-8226 leukemia = system: RPMI-8226 leukemia
RXF 393 renal = system: RXF 393 renal
SF-268 CNS = system: SF-268 CNS
SF-295 CNS = system: SF-295 CNS
SF-539 CNS = system: SF-539 CNS
SK-MEL-2 melanoma = system: SK-MEL-2 melanoma
SK-MEL-28 melanoma = system: SK-MEL-28 melanoma
SK-MEL-5 melanoma = system: SK-MEL-5 melanoma
SK-OV-3 ovarian = system: SK-OV-3 ovarian
SN12C renal = system: SN12C renal
SNB-19 CNS = system: SNB-19 CNS
SNB-75 CNS = system: SNB-75 CNS
SR leukemia = system: SR leukemia
SW-620 colon = system: SW-620 colon
T-47D breast = system: T-47D breast
TK-10 renal = system: TK-10 renal
U251 CNS = system: U251 CNS
UACC-257 melanoma = system: UACC-257 melanoma
UACC-62 melanoma = system: UACC-62 melanoma
UO-31 renal = system: UO-31 renal

CNC(=O)NCC1OC(n2cnc3c(NC(=O)Nc4ccccc4)ncnc32)C(O[Si](C)(C)C(C)(C)C)C1CC(=O)N(C)OC (stereo unspecified)
GI50 (786-0 renal): 7.06 µM
TGI (786-0 renal): > 100 µM
GI50 (A498 renal): 6.06 µM
TGI (A498 renal): > 63.5 µM
GI50 (A549 NSCLC): 5.88 µM
TGI (A549 NSCLC): > 100 µM
GI50 (ACHN renal): 7.87 µM
TGI (ACHN renal): > 100 µM
GI50 (BT-549 breast): 9.58 µM
TGI (BT-549 breast): > 100 µM
GI50 (CAKI-1 renal): 53.8 µM
TGI (CAKI-1 renal): > 100 µM
GI50 (CCRF-CEM leukemia): 6.37 µM
TGI (CCRF-CEM leukemia): > 100 µM
GI50 (COLO 205 colon): 12.3 µM
TGI (COLO 205 colon): > 100 µM
GI50 (DU-145 prostate): 14.7 µM
TGI (DU-145 prostate): > 100 µM
GI50 (EKVX NSCLC): 12.3 µM
TGI (EKVX NSCLC): > 100 µM
GI50 (HCC-2998 colon): 30.6 µM
TGI (HCC-2998 colon): > 100 µM
GI50 (HCT-116 colon): 3.95 µM
TGI (HCT-116 colon): > 100 µM
GI50 (HCT-15 colon): 4.8 µM
TGI (HCT-15 colon): > 100 µM
GI50 (HL-60(TB) leukemia): 1.69 µM
TGI (HL-60(TB) leukemia): 4.23 µM
GI50 (HOP-62 NSCLC): 22 µM
TGI (HOP-62 NSCLC): > 100 µM
GI50 (HOP-92 NSCLC): 4.33 µM
TGI (HOP-92 NSCLC): > 49.3 µM
GI50 (HS 578T breast): 7.39 µM
TGI (HS 578T breast): > 100 µM
GI50 (HT29 colon): 4.12 µM
TGI (HT29 colon): > 100 µM
GI50 (IGROV1 ovarian): 4 µM
TGI (IGROV1 ovarian): > 81.1 µM
GI50 (K-562 leukemia): 3.12 µM
TGI (K-562 leukemia): > 100 µM
GI50 (KM12 colon): 10.6 µM
TGI (KM12 colon): > 100 µM
GI50 (LOX IMVI melanoma): 5.12 µM
TGI (LOX IMVI melanoma): > 100 µM
GI50 (M14 melanoma): 8.36 µM
TGI (M14 melanoma): > 100 µM
GI50 (MALME-3M melanoma): 7.51 µM
TGI (MALME-3M melanoma): > 100 µM
GI50 (MCF7 breast): 4.11 µM
TGI (MCF7 breast): > 100 µM
GI50 (MDA-MB-231 breast): 8.47 µM
TGI (MDA-MB-231 breast): > 100 µM
GI50 (MDA-MB-435): 5.66 µM
TGI (MDA-MB-435): > 100 µM
GI50 (MOLT-4 leukemia): 2.23 µM
TGI (MOLT-4 leukemia): 9.36 µM
GI50 (NCI-H226 lung): 15.8 µM
TGI (NCI-H226 lung): > 100 µM
GI50 (NCI-H23 lung): 23.6 µM
TGI (NCI-H23 lung): > 100 µM
GI50 (NCI-H460 lung): 5.32 µM
TGI (NCI-H460 lung): > 100 µM
GI50 (NCI-H522 lung): 7.76 µM
TGI (NCI-H522 lung): > 100 µM
GI50 (NCI/ADR-RES ovarian): > 100 µM
TGI (NCI/ADR-RES ovarian): > 100 µM
GI50 (OVCAR-3 ovarian): 5.84 µM
TGI (OVCAR-3 ovarian): > 100 µM
GI50 (OVCAR-4 ovarian): 16.6 µM
TGI (OVCAR-4 ovarian): > 100 µM
GI50 (OVCAR-5 ovarian): 16.8 µM
TGI (OVCAR-5 ovarian): > 100 µM
GI50 (OVCAR-8 ovarian): 6.52 µM
TGI (OVCAR-8 ovarian): > 100 µM
GI50 (PC-3 prostate): 4.95 µM
TGI (PC-3 prostate): > 100 µM
GI50 (RPMI-8226 leukemia): 1.58 µM
TGI (RPMI-8226 leukemia): 5.4 µM
GI50 (RXF 393 renal): 4.02 µM
TGI (RXF 393 renal): 12.7 µM
GI50 (SF-268 CNS): 8.29 µM
TGI (SF-268 CNS): > 100 µM
GI50 (SF-295 CNS): 9.09 µM
TGI (SF-295 CNS): > 100 µM
GI50 (SF-539 CNS): 8.21 µM
TGI (SF-539 CNS): > 100 µM
GI50 (SK-MEL-2 melanoma): 8.08 µM
TGI (SK-MEL-2 melanoma): > 91.2 µM
GI50 (SK-MEL-28 melanoma): 5.21 µM
TGI (SK-MEL-28 melanoma): > 100 µM
GI50 (SK-MEL-5 melanoma): 4.92 µM
TGI (SK-MEL-5 melanoma): > 100 µM
GI50 (SK-OV-3 ovarian): > 72.6 µM
TGI (SK-OV-3 ovarian): > 100 µM
GI50 (SN12C renal): 17.1 µM
TGI (SN12C renal): > 100 µM
GI50 (SNB-19 CNS): > 23 µM
TGI (SNB-19 CNS): > 100 µM
GI50 (SNB-75 CNS): 6.32 µM
TGI (SNB-75 CNS): > 100 µM
GI50 (SR leukemia): 1.63 µM
TGI (SR leukemia): 4.06 µM
GI50 (SW-620 colon): > 100 µM
TGI (SW-620 colon): > 100 µM
GI50 (T-47D breast): 7.41 µM
TGI (T-47D breast): > 100 µM
GI50 (TK-10 renal): 9.17 µM
TGI (TK-10 renal): > 100 µM
GI50 (U251 CNS): 4.85 µM
TGI (U251 CNS): > 100 µM
GI50 (UACC-257 melanoma): 8.25 µM
TGI (UACC-257 melanoma): > 100 µM
GI50 (UACC-62 melanoma): 41.9 µM
TGI (UACC-62 melanoma): > 100 µM
GI50 (UO-31 renal): 5.7 µM
TGI (UO-31 renal): > 100 µM
